Reference: patent publication US9493436B2, “Tyrosine phosphatase inhibitors and uses thereof to modulate the activity of enzymes involved in the pathology of Mycobacterium tuberculosis” (priority 2011, dated 2016)
Several values for one entry are separate records, joined by “and”; a condition that tells them apart may be missing. Equal values may be shown once. Entries after “also recorded” stand apart in the source; their conditions may differ. Read-outs that look alike come from different tables or passages of the source.

How the values were obtained:
[1] = molecular target: YopH (UniProt P15273); format: biochemical; settings: read-out: IC50 (μM) YopH
Sequence of YopH (P15273 whole entry, looked up): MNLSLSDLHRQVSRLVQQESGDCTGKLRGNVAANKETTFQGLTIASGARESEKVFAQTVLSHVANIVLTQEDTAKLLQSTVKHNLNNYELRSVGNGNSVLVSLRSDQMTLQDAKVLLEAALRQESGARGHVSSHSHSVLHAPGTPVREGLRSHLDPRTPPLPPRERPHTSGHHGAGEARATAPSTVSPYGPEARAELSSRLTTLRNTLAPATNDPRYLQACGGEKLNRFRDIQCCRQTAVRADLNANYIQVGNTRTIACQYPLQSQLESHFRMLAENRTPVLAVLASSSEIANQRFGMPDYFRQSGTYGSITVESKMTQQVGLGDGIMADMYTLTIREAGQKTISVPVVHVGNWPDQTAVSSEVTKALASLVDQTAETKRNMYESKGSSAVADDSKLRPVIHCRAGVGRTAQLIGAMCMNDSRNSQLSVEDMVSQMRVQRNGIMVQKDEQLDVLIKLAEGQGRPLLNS

[2] = molecular target: SHP2-D2C (Homo sapiens, UniProt Q06124); experiment: biochemical; format: biochemical
Sequence of SHP2-D2C (Q06124 224-528 limits assumed): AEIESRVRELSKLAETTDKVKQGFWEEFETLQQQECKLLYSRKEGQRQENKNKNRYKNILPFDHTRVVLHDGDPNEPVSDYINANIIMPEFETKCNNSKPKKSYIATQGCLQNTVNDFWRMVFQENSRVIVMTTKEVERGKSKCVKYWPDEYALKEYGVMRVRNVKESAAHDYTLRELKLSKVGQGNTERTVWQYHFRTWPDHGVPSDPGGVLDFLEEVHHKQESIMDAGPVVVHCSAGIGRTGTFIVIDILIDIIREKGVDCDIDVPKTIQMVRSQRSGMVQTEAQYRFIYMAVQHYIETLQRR

[3] = molecular target: T1, mPTPB (Mycobacterium tuberculosis, UniProt I6WXK4); experiment: biochemical; format: biochemical
T1 construct: The full-length mPTPB with a N-terminal His6-tag was expressed and purified; His6 (N); made in house; host or cells: E. coli BL21/DE3 (pET28b-mPTPB)
T1 sequence (I6WXK4 1-276): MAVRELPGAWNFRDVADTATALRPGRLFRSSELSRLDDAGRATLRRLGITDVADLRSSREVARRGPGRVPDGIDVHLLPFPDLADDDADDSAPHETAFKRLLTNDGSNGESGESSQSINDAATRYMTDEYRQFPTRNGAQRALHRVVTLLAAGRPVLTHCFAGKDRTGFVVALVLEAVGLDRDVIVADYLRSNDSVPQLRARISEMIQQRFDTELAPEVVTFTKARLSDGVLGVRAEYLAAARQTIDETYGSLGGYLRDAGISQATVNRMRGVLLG

[4] = molecular target: SHP2 (Homo sapiens, UniProt Q06124); settings: read-out: IC50 (μM) SHP2
Sequence of SHP2 (Q06124 whole entry, species assumed): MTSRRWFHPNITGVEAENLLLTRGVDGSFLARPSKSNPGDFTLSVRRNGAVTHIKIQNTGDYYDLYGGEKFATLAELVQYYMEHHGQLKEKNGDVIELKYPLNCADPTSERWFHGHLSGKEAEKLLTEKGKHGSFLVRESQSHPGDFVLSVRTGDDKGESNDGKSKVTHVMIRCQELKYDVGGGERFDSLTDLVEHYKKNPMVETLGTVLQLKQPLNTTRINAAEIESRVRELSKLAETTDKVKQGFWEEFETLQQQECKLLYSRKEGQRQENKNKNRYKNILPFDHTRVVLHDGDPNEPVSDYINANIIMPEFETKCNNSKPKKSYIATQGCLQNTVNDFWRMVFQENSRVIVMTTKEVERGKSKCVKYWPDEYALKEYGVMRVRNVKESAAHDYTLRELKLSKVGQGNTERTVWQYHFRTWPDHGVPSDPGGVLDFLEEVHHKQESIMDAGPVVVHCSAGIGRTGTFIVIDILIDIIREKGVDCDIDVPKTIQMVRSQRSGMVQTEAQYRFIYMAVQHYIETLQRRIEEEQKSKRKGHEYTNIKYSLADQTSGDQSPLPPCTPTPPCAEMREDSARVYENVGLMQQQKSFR

[5] = system: Akt phosphorylation in Raw264.7 cells expressing mPTPB; format: cell-based, mouse; settings: macrophage cells expressing mPTPB, increasing concentrations
[6] = system: ERK1/2 phosphorylation in Raw264.7 cells expressing mPTPB; experiment: ERK phosphorylation in macrophage cells expressing mPTPB (western blot); format: cell-based, mouse; settings: IFN-γ, L01Z08 especially at 120 and 240 nM
Method: As explained above, ERK phosphorylation is important in the cellular secretion pathway of IL-6. However, mPTPB blocks or inhibits the phosphorylation of ERK which reduces and potentially prevents IL-6 secretion altogether.
Raw264.7 mouse macrophages were cultured in Dulbecco's modified Eagle's medium (DMEM) supplemented with 10% FBS (Invitrogen), penicillin (50 units/mL), and streptomycin (50 μg/mL) under a humidified atmosphere containing 5% CO2 at 37° C. Transfected Raw264.7 cells (Vector, WT-mPTPB) were seeded in a 12-well plate at a density of 4×10^4 cells/well. The following day cells were treated with mPTPB inhibitor 213a for 1 hr, then stimulated with IFN-γ (200 U/ml) for 1 h. […]. Wash with ice-cold phosphate buffered saline, and lysed with lysis buffer on ice for 30 min. Cell lysate is then cleared by centrifuging at 13,000 rpm for 15 min. The phosphorylation of ERK1/2 and Akt was detected by western blotting.

[7] = molecular target: T2, TC-PTP (Homo sapiens, UniProt P17706); experiment: PTP selectivity panel: TC-PTP; format: biochemical; settings: read-out: IC50 (μM) TC-PTP
T2 sequence (P17706 1-415): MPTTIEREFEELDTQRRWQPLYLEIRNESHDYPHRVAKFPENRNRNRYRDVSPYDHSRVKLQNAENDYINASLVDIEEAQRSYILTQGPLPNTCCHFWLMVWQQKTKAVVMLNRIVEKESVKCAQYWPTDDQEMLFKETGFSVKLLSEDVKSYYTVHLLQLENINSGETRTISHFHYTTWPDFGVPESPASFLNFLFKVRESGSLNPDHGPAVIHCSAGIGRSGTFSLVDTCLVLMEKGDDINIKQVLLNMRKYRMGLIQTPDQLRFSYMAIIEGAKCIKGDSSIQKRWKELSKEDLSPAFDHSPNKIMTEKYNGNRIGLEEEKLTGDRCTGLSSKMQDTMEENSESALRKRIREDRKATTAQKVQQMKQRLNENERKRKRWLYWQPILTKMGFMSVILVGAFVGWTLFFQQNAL

[8] = molecular target: VHR (Homo sapiens, UniProt P51452); settings: read-out: IC50 (μM) VHR
Sequence of VHR (P51452 whole entry, species assumed): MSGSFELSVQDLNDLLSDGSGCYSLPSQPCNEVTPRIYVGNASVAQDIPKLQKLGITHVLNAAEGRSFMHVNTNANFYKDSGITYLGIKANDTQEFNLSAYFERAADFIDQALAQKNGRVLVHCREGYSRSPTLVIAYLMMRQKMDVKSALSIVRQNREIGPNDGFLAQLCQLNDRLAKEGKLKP

[9] = molecular target: Meg2 (Homo sapiens, UniProt P43378); settings: read-out: IC50 (μM) Meg2
Sequence of Meg2 (P43378 whole entry): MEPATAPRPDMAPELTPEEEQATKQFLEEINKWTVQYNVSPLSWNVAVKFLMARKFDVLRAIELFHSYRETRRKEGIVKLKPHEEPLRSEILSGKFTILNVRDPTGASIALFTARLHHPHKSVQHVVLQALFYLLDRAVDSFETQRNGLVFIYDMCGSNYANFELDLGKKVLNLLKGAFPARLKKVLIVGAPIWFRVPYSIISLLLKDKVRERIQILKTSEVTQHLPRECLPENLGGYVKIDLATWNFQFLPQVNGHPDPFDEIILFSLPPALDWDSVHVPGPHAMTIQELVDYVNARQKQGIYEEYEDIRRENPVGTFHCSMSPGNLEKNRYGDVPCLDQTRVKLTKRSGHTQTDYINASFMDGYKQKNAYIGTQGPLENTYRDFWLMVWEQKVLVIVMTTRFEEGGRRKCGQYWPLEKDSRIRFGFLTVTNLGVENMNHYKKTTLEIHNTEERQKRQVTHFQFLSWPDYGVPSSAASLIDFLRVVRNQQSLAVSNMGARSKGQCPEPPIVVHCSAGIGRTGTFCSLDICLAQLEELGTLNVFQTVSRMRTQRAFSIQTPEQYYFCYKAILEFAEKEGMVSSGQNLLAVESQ

[10] = system: Caspase 3 activity in macrophage cells expressing mPTPB; format: cell-based; settings: especially at 120 and 240 nM
[11] = Oral and intravenous pharmacokinetics in mice; format: in vivo
Method: Oral and intravenous (IV) pharmacokinetics were determined for compounds L01-Z06, L01-Z08 and L01-Z09 in mice. Drugs were administered by a single IV injection (5 mg/kg) or oral gavage (25 mg/kg) in 20% hydroxypropyl-b-cyclodextrin/2% diethanolamine and blood samples were collected at 0.5, 1, 3, 6, 9 and 24 hours later. All three compounds were readily administered by both IV and oral routes. […] Drug levels peaked at […] after IV injection, or […] after oral gavage. Based on these parameters, all three compounds are classified as highly permeable with moderate-slow clearance rates.

In the case of `Cn1c(-c2ccccc2C(F)(F)F)c(I)c2cc(C(=O)O)c(O)cc21` [Compound 207a, 6-hydroxy-3-iodo-1-methyl-2-(2-(trifluoromethyl)phenyl)-1H-indole-5-carboxylic acid], the IC50 [1] is reported as 220 ± 20 µM, the IC50 [2] is reported as 87 ± 4 µM and the “mode of mPTPB inhibition” value ([3]; kinetic analyses, Lineweaver-Burk plot) is reported as “Non-competitive inhibition; also recorded: reversible and noncompetitive inhibitor”. The Ki ([3]; pH 7.0, 25° C.) was 1210 ± 40 nM, the IC50 ([3]; pNPP substrate, pH 7.0, 25° C., read-out: IC50 (μM) against mPTPB) was 1.2 µM and 1.18 µM and the “selectivity for mPTPB over the other ten PTPs” value ([3]; panel of 11 PTPs) was 47 fold.
For `O=C(O)c1cc2c(C#Cc3cccc(C(F)(F)F)c3)c(-c3ccccc3)oc2cc1O` [32 (L01Z08)], the IC50 [4] was 1.8 ± 0.2 µM, the “AKT phosphorylation / Akt activation” value [5] was “phosphorylation decreasing with treatments of increasing concentrations” and the “ERK phosphorylation / ERK1/2 activity” value [6] was “normal or near normal levels”. The IC50 [7] was 5.7 ± 0.4 µM, the IC50 [8] was 1.9 ± 0.4 µM and the IC50 [9] was 4.3 ± 0.5 µM. The “caspase 3 activity” value [10] was “returns caspase 3 activity to near normal levels”, the “clearance ranking among the three compounds” value ([11]; mice) was “slowest clearance of the three” and the “Clearance % LPF” value ([11]; mice, IV 5 mg/kg) was 28.9 % LPF. For the same molecule, the “Clearance % LPF” value ([11]; mice, PO 25 mg/kg) was 38.2 % LPF, the “Vdss” value ([11]; mice, PO 25 mg/kg) was 6.58 L/kg and the “clearance” value ([11]; mice, PO 25 mg/kg) was 20.602 mL/min/kg. For the same molecule, the “time active levels (sufficient to inhibit target activity by 80% in cells) maintained” value ([11]; mice, after oral delivery) was 18.5 h, the Tmax ([11]; mouse, blood, iv, 5 mg/kg, mice, IV 5 mg/kg) was 0.5 h and the half-life ([11]; mouse, blood, mice, IV 5 mg/kg) was 4.1 h. For the same molecule, the clearance ([11]; mouse, blood, mice, IV 5 mg/kg, data normalized to 25 mg/kg dose, read-out: Clearance (converted)) was 15.6 mL/min/kg, the Cmax ([11]; mouse, blood, mice, IV 5 mg/kg, data normalized to 25 mg/kg dose, read-out: Cmax (ng/mL)) was 10200 ng/mL and the Cmax ([11]; mouse, blood, mice, IV 5 mg/kg, data normalized to 25 mg/kg dose, read-out: Cmax nM) was 25500 nM. For the same molecule, the Vd ([11]; mouse, blood, mice, IV 5 mg/kg, read-out: Vdss) was 5.53 L/kg, the half-life ([11]; mouse, blood, mice, PO 25 mg/kg) was 3.7 h and the bioavailability ([11]; mouse, blood, mice, PO 25 mg/kg vs IV 5 mg/kg, read-out: Absolute Bioavailability (oral)) was 75.6%. For the same molecule, the Cmax ([11]; mouse, blood, mice, PO 25 mg/kg, read-out: Cmax (ng/mL)) was 2880 ng/mL, the Cmax ([11]; mouse, blood, mice, PO 25 mg/kg, read-out: Cmax nM) was 7210 nM and the “oral pK values over the 24 hour duration of the assay” value ([11]; oral, 24 hours) was “remain relatively constant”.
